Experimental data published in PMC2190180 (The Journal of Experimental Medicine, 1976).

Columns and labels:
[1] = system: rabbit peritoneal neutrophils; details: cited from earlier work
[2] = system: rabbit peritoneal neutrophils; assay: Assay of relative migratory; type: cell-based; details: for activity relative to F-Met-Leu as stated in running text: rounded in text from Table II; for times as active as F-Met-Leu, experiment of Fig. 1: single representative experiment (Fig. 1)
rabbit neutrophils [3] = type: cell-based; details: for beta-Glucuronidase release Relative activity ± SE: Table III, relative to F-Met-Leu = 1.0; for induction of beta-glucuronidase release at highest concentrations: at concentrations of 1 x 10-~ M or higher (so in the source)
rabbit neutrophils [4] = type: cell-based; details: for induction of lysozyme release at highest concentrations: at concentrations of 1 x 10-~ M or higher (so in the source)
neutrophils = details: appears competitive; cited from earlier work
[5] = system: rabbit peritoneal neutrophils; assay: Test of whether the peptides are chemotactic; type: cell-based; details: for nature of induced migration: directed as well as random locomotion

CC(C)C[C@H](NC=O)C(=O)O [F-leucine]
chemotactic activity ([1]; not as active as F-methionine): chemotactic

F-Leu-Trp-Met-Arg
drop in activity relative to F-Leu-Trp-Met ([2]; chemotactic activity): 40 fold

F-Met
beta-Glucuronidase release Relative activity ± SE (rabbit neutrophils [3]): > 0.00001 | induction of beta-glucuronidase release at highest concentrations (rabbit neutrophils [3]): did not induce release | induction of lysozyme release at highest concentrations (rabbit neutrophils [4]): did not induce release

F-Met-Glu
chemotactic activity compared with F-Met-Leu [1]: distinctly less active

F-Met-His
chemotactic activity compared with F-Met-Leu [1]: distinctly less active

F-Met-Leu
beta-Glucuronidase release Relative activity ± SE (rabbit neutrophils [3]): 1 | effect on initial rates of erythrophagocytosis (neutrophils): inhibit | Lysozyme release Relative activity ± SE (rabbit neutrophils [4]; Table III, relative to F-Met-Leu = 1.0): 1

F-Met-Leu-Arg
activity relative to F-Met-Leu as stated in running text ([2]; chemotactic activity): one-third

F-Met-Leu-Glu
times as active as F-Met-Leu, experiment of Fig. 1 [2]: 0.71

F-Met-Leu-Leu
activity relative to F-Met-Leu as stated in running text ([2]; chemotactic activity): 9 fold

F-Met-Leu-Phe
measured mean distance from top of filter to front two PMNs ([5]; Table I A, uniform 1.66 x 10^-10 M above and below, 60 min 37C): 71 µm | measured mean distance from top of filter to front two PMNs ([5]; Table I A, uniform 1.85 x 10-11 M above and below, 60 min 37C): 40 µm | measured mean distance from top of filter to front two PMNs ([5]; Table I A, uniform 5 x 10^-10 M above and below, 60 min 37C): 73 µm | measured mean distance from top of filter to front two PMNs ([5]; Table I A, uniform 5.55 x 10-11 M above and below, 60 min 37C): 60 µm | nature of induced migration [5]: truly chemotactic | fold more active than the corresponding unformylated peptide ([2]; chemotactic activity): approximately 10,000 fold | activity relative to F-Met-Leu as stated in running text ([2]; chemotactic activity): 5,000 fold | times as active as F-Met-Leu, experiment of Fig. 1 [2]: 7,300

F-Met-Met-Ala
activity relative to F-Met-Met (Discussion) ([2]; chemotactic activity): essentially the same | activity relative to parent dipeptide F-Met-Met (Results) ([2]; chemotactic activity): same activity

F-Met-Met-Met
measured mean distance from top of filter to front two PMNs ([5]; Table I B, above 10^-6 M, below 10^-6 M (uniform), 80 min 37C): 56 µm | calculated distance for purely random migration (bracketed) ([5]; Table I B, above 10^-6 M, below 10^-7 M): 52 µm | measured mean distance from top of filter to front two PMNs ([5]; Table I B, above 10^-6 M, below 10^-7 M, 80 min 37C): 48 µm | calculated distance for purely random migration (bracketed) ([5]; Table I B, above 10^-6 M, below 10^-8 M): 52 µm | measured mean distance from top of filter to front two PMNs ([5]; Table I B, above 10^-6 M, below 10^-8 M, 80 min 37C): 34 µm | calculated distance for purely random migration (bracketed) ([5]; Table I B, above 10^-6 M, below 10^-9 M): 52 µm | measured mean distance from top of filter to front two PMNs ([5]; Table I B, above 10^-6 M, below 10^-9 M, 80 min 37C): 38 µm | calculated distance for purely random migration (bracketed) ([5]; Table I B, above 10^-7 M, below 10^-6 M): 38 µm | measured mean distance from top of filter to front two PMNs ([5]; Table I B, above 10^-7 M, below 10^-6 M, 80 min 37C): 60 µm | measured mean distance from top of filter to front two PMNs ([5]; Table I B, above 10^-7 M, below 10^-7 M (uniform), 80 min 37C): 34 µm | calculated distance for purely random migration (bracketed) ([5]; Table I B, above 10^-7 M, below 10^-8 M): 34 µm | measured mean distance from top of filter to front two PMNs ([5]; Table I B, above 10^-7 M, below 10^-8 M, 80 min 37C): 36 µm | calculated distance for purely random migration (bracketed) ([5]; Table I B, above 10^-7 M, below 10^-9 M): 33 µm | measured mean distance from top of filter to front two PMNs ([5]; Table I B, above 10^-7 M, below 10^-9 M, 80 min 37C): 34 µm | calculated distance for purely random migration (bracketed) ([5]; Table I B, above 10^-8 M, below 10^-6 M): 35 µm | measured mean distance from top of filter to front two PMNs ([5]; Table I B, above 10^-8 M, below 10^-6 M, 80 min 37C): 62 µm | calculated distance for purely random migration (bracketed) ([5]; Table I B, above 10^-8 M, below 10^-7 M): 30 µm | measured mean distance from top of filter to front two PMNs ([5]; Table I B, above 10^-8 M, below 10^-7 M, 80 min 37C): 47 µm | measured mean distance from top of filter to front two PMNs ([5]; Table I B, above 10^-8 M, below 10^-8 M (uniform), 80 min 37C): 30 µm | calculated distance for purely random migration (bracketed) ([5]; Table I B, above 10^-8 M, below 10^-9 M): 30 µm | measured mean distance from top of filter to front two PMNs ([5]; Table I B, above 10^-8 M, below 10^-9 M, 80 min 37C): 27 µm | calculated distance for purely random migration (bracketed) ([5]; Table I B, above 10^-9 M, below 10^-6 M): 35 µm | measured mean distance from top of filter to front two PMNs ([5]; Table I B, above 10^-9 M, below 10^-6 M, 80 min 37C): 69 µm | calculated distance for purely random migration (bracketed) ([5]; Table I B, above 10^-9 M, below 10^-7 M): 30 µm | measured mean distance from top of filter to front two PMNs ([5]; Table I B, above 10^-9 M, below 10^-7 M, 80 min 37C): 57 µm | calculated distance for purely random migration (bracketed) ([5]; Table I B, above 10^-9 M, below 10^-8 M): 27 µm | measured mean distance from top of filter to front two PMNs ([5]; Table I B, above 10^-9 M, below 10^-8 M, 80 min 37C): 30 µm | nature of induced migration [5]: truly chemotactic | activity relative to parent dipeptide F-Met-Met (Results) ([2]; chemotactic activity): 120- to 150 fold | fold more active than the corresponding unformylated peptide ([2]; chemotactic activity): approximately 20,000 fold

F-Met-Met-Phe
activity relative to parent dipeptide F-Met-Met (Results) ([2]; chemotactic activity): 3,500-4,000 fold

F-Met-Phe-Leu
fold more active than the corresponding unformylated peptide ([2]; chemotactic activity): around 3,000 fold

Met-Leu-Glu
induction of beta-glucuronidase release at highest concentrations (rabbit neutrophils [3]): did not induce release | times less active than F-Met-Leu-Phe ([2]; induced migration and enzyme release): 26 million | induction of lysozyme release at highest concentrations (rabbit neutrophils [4]): did not induce release

Met-Leu-Leu
beta-Glucuronidase release Relative activity ± SE (rabbit neutrophils [3]): > 0.0001 | induction of beta-glucuronidase release at highest concentrations (rabbit neutrophils [3]): did not induce release | induction of lysozyme release at highest concentrations (rabbit neutrophils [4]): did not induce release

Met-Leu-Phe
times as active as F-Met-Leu, experiment of Fig. 1 [2]: 0.43

Met-Met-Ala
beta-Glucuronidase release Relative activity ± SE (rabbit neutrophils [3]): > 0.0001 | induction of beta-glucuronidase release at highest concentrations (rabbit neutrophils [3]): did not induce release | induction of lysozyme release at highest concentrations (rabbit neutrophils [4]): did not induce release

Met-Phe-Leu
beta-Glucuronidase release Relative activity ± SE (rabbit neutrophils [3]): > 0.0001 | induction of beta-glucuronidase release at highest concentrations (rabbit neutrophils [3]): did not induce release | induction of lysozyme release at highest concentrations (rabbit neutrophils [4]): did not induce release
